{
  "source": "patent US11000708B2",
  "about": "(priority 2015, dated 2021)",
  "key": {"[1]": {"system": "Mycobacterium tuberculosis", "settings": "against Mycobacterium tuberculosis; reported domestically; cited from earlier work"}, "[2]": {"system": "M. tuberculosis H37Rv (ATCC 27294)", "settings": "reported abroad; cited from earlier work"}, "[3]": {"system": "sensitive Mycobacterium tuberculosis", "settings": "reported domestically; cited from earlier work"}, "[4]": {"system": "drug-resistant bacteria", "settings": "reported domestically; cited from earlier work"}, "[5]": {"system": "Mycobacterium tuberculosis standard strains H37Rv", "settings": "quality control H37Rv"}},
  "note": "Read-outs that look alike come from different tables or passages of the source.",
  "data": [
    {"molecule": "CC[C@H]1OC(=O)[C@H](C)[C@@H](O[C@H]2C[C@@](C)(OC)[C@@H](O)[C@H](C)O2)[C@H](C)[C@@H](O[C@@H]2O[C@H](C)C[C@H](N(C)C)[C@H]2O)[C@](C)(O)C[C@@H](C)CN(C)[C@H](C)[C@@H](O)[C@]1(C)O", "note": "[azithromycin]", "values": [
      {"measurement": "MIC", "setting": "[1]", "value": 128, "unit": "micrograms/milliliter"},
      {"measurement": "MIC", "setting": "[2]", "value": 95, "unit": "micrograms/milliliter"}
    ]},
    {"molecule": "CC[C@H]1OC(=O)[C@H](C)[C@@H](O[C@H]2C[C@@](C)(OC)[C@@H](O)[C@H](C)O2)[C@H](C)[C@@H](O[C@@H]2O[C@H](C)C[C@H](N(C)C)[C@H]2O)[C@](C)(OC)C[C@@H](C)C(=O)[C@H](C)[C@@H](O)[C@]1(C)O", "note": "[clarithromycin]", "values": [
      {"measurement": "MIC", "setting": "[3]", "value": "0.25-2.0 micrograms/milliliter"},
      {"measurement": "MIC", "setting": "[4]", "value": "2.0-32 micrograms/milliliter"},
      {"measurement": "MIC", "setting": "[2]", "value": 6, "unit": "micrograms/milliliter"}
    ]},
    {"molecule": "CC[C@H]1OC(=O)[C@H](C)[C@@H](O[C@H]2C[C@@](C)(OC)[C@@H](O)[C@H](C)O2)[C@H](C)[C@@H](O[C@@H]2O[C@H](C)C[C@H](N(C)C)[C@H]2O)[C@](C)(O)C[C@@H](C)/C(=N\\OCOCCOC)[C@H](C)[C@@H](O)[C@]1(C)O", "note": "[roxithromycin]", "values": [
      {"measurement": "MIC", "setting": "[2]", "value": "greater than or equal to 64 micrograms/milliliter"}
    ]},
    {"molecule": "CC[C@H]1OC(=O)C[C@@H](O)[C@H](C)[C@@H](O[C@@H]2O[C@H](C)[C@@H](O[C@H]3C[C@@](C)(O)[C@@H](O)[C@H](C)O3)[C@H](N(C)C)[C@H]2O)[C@@H](CC=O)C[C@@H](C)C(=O)/C=C/C(C)=C/[C@@H]1CO[C@@H]1O[C@H](C)[C@@H](O)[C@@H](OC)[C@H]1OC", "note": "[tylosin]", "values": [
      {"measurement": "MIC", "setting": "[2]", "value": 58.6, "unit": "micrograms/milliliter"}
    ]},
    {"molecule": "carrimycin", "values": [
      {"measurement": "growth of bacterial colonies on drug-containing culture medium", "setting": "[5]; carrimycin 1 μg/ml", "value": "4+ (positive (4+) if the bacterial colonies closely grow on the slant face of the culture medium and account for ¾ or more of the area of the slant face)"},
      {"measurement": "growth of bacterial colonies on drug-containing culture medium", "setting": "[5]; carrimycin 20 μg/ml", "value": "−"}
    ]}
  ]
}
